Test results: patent US8404738B2 (Hoffmann-La Roche Inc., priority 2011, dated 2013)
pEC50, pIC50: −log10 of the molar value.

Experiments:
[1] = biological target: T1, recombinant human HDAC8 (Homo sapiens, UniProt Q9BY41); assay: HDAC8 inhibition: recombinant HDAC8 fluorometric assay; type: biochemical; details: recombinant human HDAC8, substrate Ac-Arg-His-Lys-Lys(ε-acetyl)-AMC; read-out: HDAC8 IC50
T1 construct: made in house; host or cells: insect cells
T1 sequence (Q9BY41 1-377): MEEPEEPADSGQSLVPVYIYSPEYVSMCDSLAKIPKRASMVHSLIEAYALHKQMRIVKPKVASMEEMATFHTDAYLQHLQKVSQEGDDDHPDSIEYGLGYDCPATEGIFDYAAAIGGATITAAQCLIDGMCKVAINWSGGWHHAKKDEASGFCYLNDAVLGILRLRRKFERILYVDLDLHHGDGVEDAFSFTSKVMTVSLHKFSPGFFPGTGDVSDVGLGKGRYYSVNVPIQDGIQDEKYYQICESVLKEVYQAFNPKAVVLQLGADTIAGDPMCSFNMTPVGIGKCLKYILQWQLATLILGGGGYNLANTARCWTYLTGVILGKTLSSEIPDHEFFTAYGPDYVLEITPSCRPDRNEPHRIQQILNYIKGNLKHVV
Protocol: HDAC8 Inhibition by Novel Compounds: Recombinant HDAC8 Fluorometric Assay.
A competitive inhibitory assay of HDAC8 was carried out by using recombinant HDAC8 and a commercial substrate Ac-Arg-His-Lys-Lys(ε-acetyl)-AMC.
Compounds were tested for their ability to inhibit histone deacetylase 8 using an in vitro deacetylation assay. The enzyme source for this assay was recombinant human HDAC8 protein expressed and purified from insect cells. […] The substrate consisted of a commercial product Ac-Arg-His-Lys-Lys(ε-acetyl)-AMC (substrate is available from Cayman Chemical). […] 1 μl of half-log diluted compounds were added into wells and incubated for 15 min at rt. After that, 8 μl of substrate solution was transferred to the wells and incubated for 30 min at rt. After deacetylation of the substrate by incubation with HDAC8 enzyme, subsequent exposure to a developing reagent produced a fluorophore that was directly proportional to the level of deacetylation. […] The fluorescence signal was measured by a FlexStation3 plate reader (excitation wave length 340-360 nm; emission wave length 440-465 nm). The HDAC8 IC50 was calculated after normalization and curve fitting using XLfit4.0 software. Inhibition %=[Mean(top)−signal(sample)]×100/[Mean(top)−Mean(bottom)].

[2] = biological target: T2, HDAC6 (Homo sapiens, UniProt Q9UBN7); assay: Tubulin acetylation cytoblot assay (A549 cells); type: cell-based; details: 17-18 h incubation, tubulin acetylation as marker of HDAC6 inhibition, read-out: Tub-Ac EC50
T2 construct: endogenous in cells; host or cells: A549 cells
T2 sequence (Q9UBN7 1-1215): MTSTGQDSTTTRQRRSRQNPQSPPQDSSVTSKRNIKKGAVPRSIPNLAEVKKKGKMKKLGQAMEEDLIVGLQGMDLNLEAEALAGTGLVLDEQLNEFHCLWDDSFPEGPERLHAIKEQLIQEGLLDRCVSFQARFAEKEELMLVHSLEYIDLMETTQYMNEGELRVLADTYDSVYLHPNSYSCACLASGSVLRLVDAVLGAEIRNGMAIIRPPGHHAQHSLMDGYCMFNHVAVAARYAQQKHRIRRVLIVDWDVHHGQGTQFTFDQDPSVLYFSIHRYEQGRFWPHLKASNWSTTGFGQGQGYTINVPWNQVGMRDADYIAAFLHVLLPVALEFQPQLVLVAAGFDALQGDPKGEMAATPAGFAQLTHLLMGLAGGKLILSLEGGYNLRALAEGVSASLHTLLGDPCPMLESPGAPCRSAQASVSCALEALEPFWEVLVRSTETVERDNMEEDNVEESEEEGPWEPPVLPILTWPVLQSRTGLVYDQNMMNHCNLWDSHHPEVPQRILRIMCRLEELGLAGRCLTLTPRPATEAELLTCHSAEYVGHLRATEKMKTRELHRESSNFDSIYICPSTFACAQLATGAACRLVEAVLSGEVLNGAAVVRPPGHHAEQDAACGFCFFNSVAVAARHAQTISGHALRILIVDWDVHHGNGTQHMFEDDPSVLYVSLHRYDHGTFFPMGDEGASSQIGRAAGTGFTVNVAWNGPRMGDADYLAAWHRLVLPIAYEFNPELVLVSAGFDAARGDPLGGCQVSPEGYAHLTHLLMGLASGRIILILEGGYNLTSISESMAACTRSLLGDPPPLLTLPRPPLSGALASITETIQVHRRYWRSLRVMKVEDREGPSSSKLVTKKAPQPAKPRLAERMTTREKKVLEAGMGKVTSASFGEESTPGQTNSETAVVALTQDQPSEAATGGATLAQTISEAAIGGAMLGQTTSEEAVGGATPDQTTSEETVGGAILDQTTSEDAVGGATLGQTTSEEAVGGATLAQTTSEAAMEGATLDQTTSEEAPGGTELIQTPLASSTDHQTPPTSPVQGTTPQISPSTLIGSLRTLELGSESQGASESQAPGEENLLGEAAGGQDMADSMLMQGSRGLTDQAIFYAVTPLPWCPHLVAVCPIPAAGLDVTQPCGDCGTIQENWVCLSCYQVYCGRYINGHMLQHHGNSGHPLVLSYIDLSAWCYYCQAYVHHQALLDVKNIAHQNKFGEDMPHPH
Protocol: Tubulin Acetylation Induction by Novel Compounds: Tubulin Acetylation Cytoblot Assay.
Tubulin acetylation is a PD marker for HDAC6 inhibition. The extent of tubulin acetylation represents the inhibitory effect on HDAC6.
Novel compounds were tested for their ability to inhibit HDAC6 using a cell-based deacetylation assay. Tubulin acetylation was detected by the anti-acetylated tubulin antibody (Sigma) and horse radish peroxidase (HRP) conjugated secondary antibody (KangChen Bio. Tech.). […] 20 μl of diluted compound solution was transferred to the cell culture plate and incubated for 17-18 h. After medium removal and fixation by formaldehyde (3.7% paraformaldehyde in TBS), the cells in the plates were treated with 180 μl of −20° C. MeOH and incubated for 5 min at rt. The cell lysis was incubated with 75 μl of primary anti-acetylated tubulin antibody and secondary HRP conjugated antibody solution (1:750 anti-acetylated tubulin, 1:750 HRP conjugated anti-mouse IgG in antibody dilution buffer not containing sodium azide) for 4 h at 4° C. By adding the HRP substrate, enhanced chemiluminescence (ECL) reagent (GE Healthcare) generated luminescence corresponding to the level of tubulin acetylation. So that 75 μl of ECL was added into the wells and the luminescence from each well was immediately quantified by the plate reader. Based on the luminescence reading, the Tub-Ac EC50s against HDAC6 of the tested compounds were calculated by plotting the curve with XLfit4.0 software. Inhibition %=[signal(sample)−Mean(bottom)]×100/[Mean(top)−Mean(bottom)]

[3] = system: p21 promoter-luciferase construct; assay: p21 reporter gene induction (HeLa cells, p21 promoter-luciferase construct); details: for p21 RP3: relative gene level of p21 compared to MS275 at 3 μM; for p21 RP10: relative level of p21 compared to MS275 at 10 μM; for p21 RP30: relative level of p21 compared to MS275 at 30 μM;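 on all read-outs here: transfected HeLa cells exposed to compound for 15 h, luciferase luminescence read from lysates, p21 promoter lacks p53 site, proxy for cellular HDAC1/2/3 inhibition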
Protocol: As a surrogate for in-cell HDAC1/2/3 inhibition, p21 induction was used as a counterscreen to evaluate the selectivity of the compounds in the present invention toward HDAC6 or HDAC8.
The novel compounds of the present invention were tested for their ability to induce p21 gene expression using a reporter gene assay involving HeLa cells transfected with a p21 promoter-luciferase construct. The p21 promoter contained the Sp1/Sp3 binding site for HDAC but not the upstream p53 binding site. Briefly, the day before transfection, HeLa cells were seeded at 11,000 cells/well in a 96-well culture plate and incubated at 37° C. in 5% CO2 overnight. A transfection media was prepared prior to transfection according to the following procedure: (1) 5 μl serum-free DMEM, 0.15 μl Fugene 6 reagent, 40 ng p21-luc, 10 ng GFP were mixed gently and incubated at rt for 30 minutes; (2), then 98 μl DMEM (with 10% FBS, 1% penicillin and streptomycin) was added to the DNA: Fugene 6 reagent complex and mixed gently. For transfection, the medium was removed and replaced with 100 μl/well transfection media which was prepared according to the procedure above. After incubating the cells for 24 hours at 37° C. in 5% CO2, fresh media and test compounds were added to the wells and the cells further incubated for 15 hours at 37° C. in 5% CO2. Cells were lysed by adding 80 μl/well of a cell culture lysis reagent (Promega). 50 μl of each lysate was taken for GFP detection using an excitation wavelength of 486 nm and detection at 527 nm. 100 μl luciferase assay reagent (Promega) was then added to every 20 μl cell lysate for luminometer detection.

SMILES	pIC50 [1]	pEC50 [2]	p21 RP3 [3]	p21 RP10 [3]	p21 RP30 [3]
O=C(NO)c1ccc(NC2CCN(c3cc(F)cc(Cl)c3)C2=O)cc1 (centres unmarked) [Example 21, 4-[1-(3-Chloro-5-fluoro-phenyl)-2-oxo-pyrrolidin-3-ylamino]-N-hydroxy-benzamide]	6.00	5.33	1.56	0.48	0.28
O=C(NO)c1ccc(NC2CCN(c3cc(Cl)ccc3F)C2=O)cc1 (centres unmarked) [Example 22, 4-[1-(5-Chloro-2-fluoro-phenyl)-2-oxo-pyrrolidin-3-ylamino]-N-hydroxy-benzamide]	5.71	5.88	0.42	0.28	0.39
O=C(NO)c1ccc(NC2CCN(c3ccc(Cl)c(Cl)c3)C2=O)cc1 (centres unmarked) [Example 25, 4-[1-(3,4-Dichloro-phenyl)-2-oxo-pyrrolidin-3-ylamino]-N-hydroxy-benzamide]	6.01	5.36	0.00	0.14	−0.03
O=C(NO)c1ccc(NC2CCN(c3cc(Cl)cc(Cl)c3)C2=O)cc1 (centres unmarked) [Example 26, 4-[1-(3,5-Dichloro-phenyl)-2-oxo-pyrrolidin-3-ylamino]-N-hydroxy-benzamide]	5.33	5.31	0.42	0.06	0.04
Cc1cc(F)cc(C)c1N1CCC(Nc2ccc(C(=O)NO)cc2)C1=O (centres unmarked) [Example 28, 4-[1-(4-Fluoro-2,6-dimethyl-phenyl)-2-oxo-pyrrolidin-3-ylamino]-N-hydroxy-benzamide]	5.73	5.39	0.04	0.01	0.01
O=C(NO)c1ccc(NC2CCN(c3cccc(Oc4ccccc4)c3)C2=O)cc1 (centres unmarked) [Example 30, N-Hydroxy-4-[2-oxo-1-(3-phenoxy-phenyl)-pyrrolidin-3-ylamino]-benzamide]	5.49	5.64	0.13	0.09	0.05
O=C(NO)c1ccc(NC2CCN(c3ccc(Oc4ccccc4)cc3)C2=O)cc1 (centres unmarked) [Example 31, N-Hydroxy-4-[2-oxo-1-(4-phenoxy-phenyl)-pyrrolidin-3-ylamino]-benzamide]	5.38	5.01	0.09	0.07	0.05
O=C(NO)c1ccc(NC2CCN(c3cccc(-n4cccc4)c3)C2=O)cc1 (centres unmarked) [Example 33, N-Hydroxy-4-[2-oxo-1-(3-pyrrol-1-yl-phenyl)-pyrrolidin-3-ylamino]-benzamide]	6.01	6.17	0.45	0.41	0.18
O=C(NO)c1ccc(NC2CCN(c3ccc(-n4ccnc4)cc3)C2=O)cc1 (centres unmarked) [Example 34, N-Hydroxy-4-[1-(4-imidazol-1-yl-phenyl)-2-oxo-pyrrolidin-3-ylamino]-benzamide]	5.54	4.97	0.36	0.12	0.06
CN(C)CCOc1cccc(N2CCC(Nc3ccc(C(=O)NO)cc3)C2=O)c1 (centres unmarked) [Example 36, 4-{1-[3-(2-Dimethylamino-ethoxy)-phenyl]-2-oxo-pyrrolidin-3-ylamino}-N-hydroxy-benzamide]	6.31	5.69	0.55	0.18	0.45

Second part, led by results:

pIC50 [1]	pEC50 [2]	SMILES	p21 RP3 [3]	p21 RP10 [3]	p21 RP30 [3]
6.11	5.61	O=C(NO)c1ccc(NC2CCN(c3cccc(Cl)c3Cl)C2=O)cc1 (centres unmarked) [Example 24, 4-[1-(2,3-Dichloro-phenyl)-2-oxo-pyrrolidin-3-ylamino]-N-hydroxy-benzamide]	0.11	0.02	0.02
6.12	5.62	O=C(NO)c1ccc(NC2CCN(c3c(Cl)cccc3Cl)C2=O)cc1 (centres unmarked) [Example 27, 4-[1-(2,6-Dichloro-phenyl)-2-oxo-pyrrolidin-3-ylamino]-N-hydroxy-benzamide]	0.11	0.03	0.04
6.12	4.86	O=C(NO)c1ccc(NC2CCN(c3ccc(Cl)c(CO)c3)C2=O)cc1 (centres unmarked) [Example 29, 4-[1-(4-Chloro-3-hydroxymethyl-phenyl)-2-oxo-pyrrolidin-3-ylamino]-N-hydroxy-benzamide]	0.55	0.10	0.12
6.15	6.15	O=C(NO)c1ccc(NC2CCN(c3cccc(-c4ccccc4)c3)C2=O)cc1 (centres unmarked) [Example 32, 4-(1-Biphenyl-3-yl-2-oxo-pyrrolidin-3-ylamino)-N-hydroxy-benzamide]	0.38	0.08	0.15
6.21	5.69	O=C(NO)c1ccc(NC2CCN(c3cccc(-c4cnco4)c3)C2=O)cc1 (centres unmarked) [Example 35, N-Hydroxy-4-[1-(3-oxazol-5-yl-phenyl)-2-oxo-pyrrolidin-3-ylamino]-benzamide]	0.44	0.25	0.20
6.03	5.67	O=C(NO)c1ccc(NC2CCN(c3cccc4ccccc34)C2=O)cc1 (centres unmarked) [Example 37, N-Hydroxy-4-(1-naphthalen-1-yl-2-oxo-pyrrolidin-3-ylamino)-benzamide]	0.04	0.04	0.06
